Measured values published in US6943191B1, “Disubstituted lavendustin A analogs and pharmaceutical composition comprising the analogs” (The United States of America as represented by the …, priority 1998, dated 2005).
Where two headings read alike, the source gives them in different places.

How the values were obtained:
[1] = target: T1, p210^bcr-abl (Homo sapiens, UniProt P00519); experiment: Inhibition of in vitro auto-phosphorylation of p210^bcr-abl, immune-complex kinase assay; type: biochemical
T1 construct: immune complexes containing ^32P-labeled p210^bcr-abl were collected on protein Sepharose beads; BCR (N-terminal part of the breakpoint cluster region protein, natural fusion partner); endogenous in cells; host or cells: K562 cells (lysate, immunoprecipitated on Protein A-Sepharose); the other entry of the earlier key: BCR (P11274, Breakpoint cluster region protein)
Experimental: Inhibition of in vitro auto-phosphorylation of p210^bcr-abl in immune-complex kinase assays were conducted as follows. K562 cell line cells were washed twice in […]. The washed cells were lysed in PLC lysis buffer 150 mM HEPES (pH 7.5), 150 mM NaCl, 10% (v/v) glycerol, 1% (v/v) Triton X-100, 1.5 mM MgCl2, 1 mM EGTA. 10 μg/ml leupeptin, 10 μg/ml aprotinin, 1 mM sodium orthovanadate. 10 mM sodium pyrophosphate, 100 mM sodium fluoride and 1 mM phenylmethyl sulfonyl fluoride| Cell lysates were centrifuged at 100,000 g for 15 minutes and the supernatant collected. Protein concentrations of the clarified supernatants were determined by the Bradford Protein Assay, and the same quantity of protein was immunoprecipitated from control (vehicle-treated) and drug-treated cells. Cell lysates were incubated and gently rocked at 4° C. for 4 hours overnight with antibodies. Immune complexes were collected by incubation with Protein A-Sepharose beads (Pharmacia, Piscataway N.J.) and immune complexes (beads) were washed three times with HNTG buffer [20 mM HEPES (pH 7.5), 10% glycerol, 0.1% Triton X-100, 150 mM NaCl and 1 mM sodium orthovanadate] to remove unbound material. Bound proteins were boiled for 5 minutes in 2×SDS sample buffer (63 mM Tris-HCl, ph 6.8; 10% glycerol; 2% SDS; 0.0025% bromophenol blue: and […] 2 mercaptoethanol) prior to SDS-PAGE. Proteins were resolved on 4-20% gradient mini gels from Novex Experimental Technology (San Diego, Calif.).
After SDS-PAGE, proteins were electrophoretically transferred onto Immobilon polyvinylidene difluoride (PVDF) membranes (Millipore, Bedford, Mass.) at 250 mA for 4 hours at 4° C. using 2× Tris glycine transfer buffer (50 mM Tris, glycine), 20% methanol and 0.1% SDS. Residual binding sites on the membrane were blocked by incubation in TTS (20 mM Tris pH 7.4, 0.9% NaCl and 0.05% Tween 20) containing 3% BSA overnight at 4° C. or for 4 hours at room temperature. Blots were incubated for 1-1.5 hours with TTS containing 0.3% BSA with 1 μg/ml of mouse anti-P-Tyr, 2 μg/ml of mouse anti-Grb2 or 1 μg/ml of rabbit anti-She antibody. Blots were washed three times for 6 minutes each with TTS containing 0.3% BSA and probed with a 1:1000 dilution of rabbit anti-mouse antibody or directly with [^125I]Protein A (Amersham, Arlington Heights, Ill.) in blocking solutions. Proteins were visualized by autoradiography (exposed for 1-2 days at −70° C.).
The p210^bcr-abl, protein immunoprecipitates were washed twice with HTNG buffer Immunoprecipitates were washed once with 50 mM Tris (pH 7.0) and distributed to each reaction in 20 μl of 20 mM PIPES [piperazine-N,N′-bis(ethanesulfonic acid)] (pH 7.0)−20 mM MnCl2. Then, 10 μl of compounds made according to the present invention at desired concentrations from working stock solution prepared in 20 mM PIPEs (pH 7.0)−20 mM MnCl2 were added to each reaction tube. Reactions were initiated with the addition of 10 μl of [γ-^33P]ATP (10 μCi per sample, 3000 Ci/mmol; Amersham), incubated for 20 minutes at 30° C., stopped by addition of 10 μl of 5×SDS sample buffer, heated at 100° C. for 5 minutes, and analyzed on 4-20% SDS-PAGE and by autoradiography.
To assess the effect of drugs added in vitro on the state of p210^bcr-abl in the immune complexes, K562 cells were labeled with ^32P, lysed in PLC buffer and immune complexes containing ^32P-labeled p210^bcr-abl were collected on protein Sepharose beads and beads were washed four times with HNTG buffer. Immune complexes were divided into several tubes in 30 μl of PLC buffer in the presence of compounds made as described herein.

[2] = test system: K562 cells; experiment: K562 cell culture and growth assay, 6 day MTT; type: cell-based, human; conditions: K562, 6 days
Experimental: This example describes the procedure used for cell culture and growth assays. Human leukemia, Philadelphia-chromosome-positive CML cell line K562 was obtained from ATCC (Rockville, Md.). Cells were cultured in RPMI medium containing 10% fetal calf serum, 2 mM glutamine, 100 units/ml of penicillin and 100 μg/ml streptomycin Cells (2×10^3 cells/well) were incubated with increasing concentrations of compounds of the present invention dissolved in DMSO in a final volume of 200 μl in 96-well plates. Control cells were incubated with medium containing identical concentrations of the DMSO solvent. Growth of K562 cells was quantitated after 6 days by ability of living cells to reduce the yellow dye 3-(4,5-dimethylthiazolyl)-2,5-diphenyltetrazolium bromide (MTT) to a blue formazan product. Further information concerning this procedure is provided by Mossman T., “Rapid Colorimetric Assay for Cellular Growth and Survival—Application to Proliferation and Cytotoxicity Assays,” J. Immunol. Methods 1983, 65:55-63, which is incorporated herein by reference.

[3] = test system: panel of approximately 60 different human tumor cell lines; experiment: National Cancer Institute drug screen, mean-graph parameters; type: cell-based; conditions: mean over cell line panel, two days exposure; for GI50: Homo sapiens, 48 h, read-out: Tumor cell Mean log GI50 (converted)
Experimental: Compounds of the present invention also have been subjected to the drug screening procedure employed by the National Cancer Institute for the screening of drugs having possible anticancer utility. The screening procedure uses a diverse, disease-oriented panel consisting of approximately 60 different human tumor cell lines organized into disease-specific subpanels. The compounds of the present invention were tested over a range of concentrations for cytotoxic or growth-inhibitory effects against cell lines comprising the panel. The eight subpanels represented diverse histologies (leukemias, melanomas, and tumors of the lung, colon, kidney, breast, ovary, and brain).
Compounds of the present invention were tested over a period of two days. During this period the cells were continuously exposed to various concentrations of the compounds tested. The tests produced individual dose-responses, one for each cell line (i.e. one for each example), and the data were represented in dose-response curves. The data provided by these dose response curves were summarized using a mean-graph format.
To produce data for the mean-graph format, a compound concentration that produced a target level response was calculated for each cell line. Three different response parameters were evaluated. The first response parameter was the growth inhibition (“GI50”). GI50 is the concentration of compounds made according to the present invention that produced an apparent 50% decrease in the number of tumor cells relative to the appropriate control (not exposed to the compounds of the present invention) at the end of the incubation period.
The second response parameter was the total growth inhibition (“TGI”). TGI is the concentration at which the number of tumor cells remaining at the end of the incubation period substantially equal the number of tumor cells existing at the start of the incubation period.
The third response parameter was the lethal concentration (“LC50”) LC50 is the concentration of compounds made according to the present invention that caused an apparent 50 percent reduction in the number of tumor cells […] at the start of the incubation period.
In a typical GI50 mean graph, the relative position of the vertical reference line along the horizontal concentration axis was obtained by averaging the negative log10GI50 values for all the cell lines tested against the compound. Horizontal bars were then plotted for the individual negative log10GI50 values of each cell line relative to the vertical reference line. The GI50 graph thus provided a characteristic fingerprint for the compound, displaying the individual cell lines that are proportionately more sensitive than average (bars extending to the right of the reference line) or proportionately less sensitive than average (bars extending to the left of the reference line). The length of a bar was proportional to the difference between the log10GI50 value obtained with the particular cell line and the mean (represented by the vertical reference line).
Similar mean graphs were prepared for the TGI and LC50 response parameters.

[4] = Table 9, immune complex kinase assay, mean ± S.E., 3 experiments, read-out: Enzyme Assays IC50 (μM) p210bcl-abl in vitro phosphorylation
[5] = Table 9, mean ± S.E., 4 or more experiments, read-out: IC50 (μM) 6dMTT
[6] = Homo sapiens, 144 h, Table 9, mean ± S.E., 4 or more experiments, read-out: IC50 (μM) 6dMTT
[7] = Table 8, immune complex kinase assay, mean+S.E., 3 experiments, read-out: Enzyme Assays IC50 (μM) p210bcl-abl in vitro phosphorylation
[8] = Homo sapiens, 144 h, Table 8, mean+S.E., 4 or more experiments, read-out: IC50 (μM) 6 dMTT
[9] = Homo sapiens, 144 h, Table 4, read-out: IC50 (6d MTT)
[10] = Table 4, read-out: IC50 (p210^ber-abi in vitro phosphorylation)

T1 sequence (P00519 with tags, fused parts or gaps): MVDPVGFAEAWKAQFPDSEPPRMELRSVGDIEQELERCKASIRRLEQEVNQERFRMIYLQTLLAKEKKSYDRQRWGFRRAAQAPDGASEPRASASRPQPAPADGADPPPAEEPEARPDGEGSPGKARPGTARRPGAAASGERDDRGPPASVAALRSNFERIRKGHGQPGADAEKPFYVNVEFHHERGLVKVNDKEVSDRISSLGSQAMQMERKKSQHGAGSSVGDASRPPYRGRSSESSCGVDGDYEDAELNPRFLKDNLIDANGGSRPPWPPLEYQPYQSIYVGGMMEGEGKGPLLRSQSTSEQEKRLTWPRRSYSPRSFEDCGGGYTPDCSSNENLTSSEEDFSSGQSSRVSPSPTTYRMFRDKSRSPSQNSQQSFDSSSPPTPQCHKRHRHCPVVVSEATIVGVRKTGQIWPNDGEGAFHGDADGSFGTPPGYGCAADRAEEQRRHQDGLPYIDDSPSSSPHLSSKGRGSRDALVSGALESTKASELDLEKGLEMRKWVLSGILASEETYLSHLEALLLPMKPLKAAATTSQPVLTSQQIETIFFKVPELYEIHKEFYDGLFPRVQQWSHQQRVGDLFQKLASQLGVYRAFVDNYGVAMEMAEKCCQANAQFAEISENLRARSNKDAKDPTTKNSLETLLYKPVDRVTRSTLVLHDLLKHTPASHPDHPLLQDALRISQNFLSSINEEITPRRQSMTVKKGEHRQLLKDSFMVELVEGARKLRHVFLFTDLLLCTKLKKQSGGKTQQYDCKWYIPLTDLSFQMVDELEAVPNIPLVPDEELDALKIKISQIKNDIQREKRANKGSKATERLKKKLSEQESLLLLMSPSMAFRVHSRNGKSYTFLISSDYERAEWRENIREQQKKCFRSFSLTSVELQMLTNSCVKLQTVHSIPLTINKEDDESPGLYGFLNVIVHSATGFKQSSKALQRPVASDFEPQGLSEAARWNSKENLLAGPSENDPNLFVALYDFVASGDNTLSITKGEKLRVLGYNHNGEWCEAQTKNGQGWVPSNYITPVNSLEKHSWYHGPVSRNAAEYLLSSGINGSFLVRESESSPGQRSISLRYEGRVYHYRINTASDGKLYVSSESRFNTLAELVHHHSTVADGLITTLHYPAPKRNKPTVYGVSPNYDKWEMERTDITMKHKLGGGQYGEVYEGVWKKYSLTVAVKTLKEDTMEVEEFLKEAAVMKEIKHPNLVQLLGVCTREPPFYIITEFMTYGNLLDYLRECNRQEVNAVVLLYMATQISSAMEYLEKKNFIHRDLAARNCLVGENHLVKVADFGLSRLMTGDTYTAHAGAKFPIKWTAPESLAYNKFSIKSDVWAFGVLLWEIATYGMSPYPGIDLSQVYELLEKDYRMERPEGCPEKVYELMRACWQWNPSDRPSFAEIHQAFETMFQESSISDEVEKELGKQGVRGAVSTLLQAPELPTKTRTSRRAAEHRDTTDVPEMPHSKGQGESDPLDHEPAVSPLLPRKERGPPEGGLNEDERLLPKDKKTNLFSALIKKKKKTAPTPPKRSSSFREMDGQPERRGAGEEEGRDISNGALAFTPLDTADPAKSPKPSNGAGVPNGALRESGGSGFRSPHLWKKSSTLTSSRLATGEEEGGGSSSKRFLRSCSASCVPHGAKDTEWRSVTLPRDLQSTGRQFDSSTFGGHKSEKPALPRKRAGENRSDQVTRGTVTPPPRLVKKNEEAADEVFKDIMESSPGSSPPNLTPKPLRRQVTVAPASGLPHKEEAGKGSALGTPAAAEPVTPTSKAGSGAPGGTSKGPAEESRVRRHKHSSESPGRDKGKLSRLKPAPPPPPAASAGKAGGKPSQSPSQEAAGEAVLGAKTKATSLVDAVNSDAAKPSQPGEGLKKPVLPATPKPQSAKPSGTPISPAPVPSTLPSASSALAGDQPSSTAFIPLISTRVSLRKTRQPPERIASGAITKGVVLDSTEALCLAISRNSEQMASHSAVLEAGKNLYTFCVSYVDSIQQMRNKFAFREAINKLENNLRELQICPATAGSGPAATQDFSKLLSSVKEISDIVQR

Row | SMILES | IC50 [1, 4] [µM] | IC50 [1, 7] [µM] | IC50 [2, 8] [µM] | IC50 [2, 9] [µM] | Tumor Cell Mean log TGI ([3]; Table 9) | Tumor Cell Mean log GI50 ([3]; Table 8) | Tumor Cell Mean log TGI ([3]; Table 8) | other results
1 | NC(=O)c1ccc(NCC2=CC(=O)C=CC2=O)cc1 [CONH2 / H / 2,5-quinoyl] | 5.1 ± 0.3 | – | – | – | −4.31 | – | – | IC50 [2, 5]: 21.7 ± 2.27 µM; Tumor Cell Mean log GI50 ([3]; Table 9): −4.59
2 | COP(=O)(OC)c1ccc(NCc2cc(O)ccc2O)cc1 [O═P(OCH3)2 / H / H, 4′-phenylphosphonate-1-N-2,5-dihydroxybenzylamine] | – | 0.49 | 9.83 | – | – | −4.61 | −4.23 | –
3 | O=C(O)c1ccc(NCc2cc(O)ccc2O)cc1 [COOH / H / H] | – | 18.5 | 41.9 | – | – | −4.96 | −4.60 | –
4 | NC(=O)c1ccc(NCc2cc(O)ccc2O)cc1 [CONH2 / H / H] | – | 4.23 | 20.9 | – | – | −4.53 | −4.26 | –
5 | COC(=O)c1cc(NCc2cc(O)cc(Br)c2O)ccc1Cl [4′-chloro-5′-methylbenzoate-1′-N-3-bromo-2,5-dihydroxybenzylamine] | 3.56 ± 0.53 | – | – | – | −4.43 | – | – | IC50 [2, 5]: 8.9 ± 0.5 µM; Tumor Cell Mean log GI50 ([3]; Table 9): −4.86
6 | COC(=O)c1ccc(NCc2cc(O)ccc2O)cc1O [COOCH3 / OH / H] | – | 6.44 | 17.7 | – | – | −5.23 | −4.70 | –
7 | CC(C)N(C(=O)c1ccc(NCc2cc(O)ccc2O)cc1)C(C)C [CON[CH(CH3)2]2 / H / H, 4′-diisopropylbenzamide-N-2,5-dihydroxybenzylamine] | – | 2.36 | 18.2 | – | – | −4.88 | −4.36 | –
8 | CC(C)(C)OC(=O)c1ccc(NCc2cc(O)ccc2O)cc1 [Compound 14] | – | – | – | 7 | – | – | – | IC50 [1, 10]: 10 µM
9 | CC(C)OC(=O)c1cc(NCc2c(O)ccc(O)c2Br)ccc1Cl [Compound 13] | – | – | – | 18 | – | – | – | IC50 [1, 10]: 10 µM

Further lines, with some results ahead:

Row | IC50 [1, 4] [µM] | IC50 [1, 7] [µM] | IC50 [2, 8] [µM] | IC50 [2, 9] [µM] | SMILES | Tumor Cell Mean log TGI ([3]; Table 9) | Tumor Cell Mean log GI50 ([3]; Table 8) | Tumor Cell Mean log TGI ([3]; Table 8) | other results
10 | 3.01 ± 1.75 | – | – | – | CC(C)OC(=O)c1ccc(NCC2=CC(=O)C=CC2=O)cc1Cl [Compound 26, 3′-chloro-4′-isopropylbenzoate-1′-N-p-quinone-2-methyl amine] | −4.41 | – | – | IC50 [2, 6]: 27.7 ± 0.6 µM; GI50 ([3]; Table 9): 9.55 µM
11 | – | – | – | 7.5 | COC(=O)c1ccc(/C=C/C2=CC(=O)C=CC2=O)cc1 [Compound 33] | – | – | – | IC50 (p210^ber-abi in vitro phosphorylation) ([1]; Table 4): No Effect
12 | 2.68 ± 1.33 | – | – | – | CC(C)(C)OC(=O)c1ccc(NCC2=C(Br)C(=O)C=CC2=O)cc1 [Compound 24, 4′-t-butylbenzoate-1′-N-2-bromo-p-quinone-3-methyl amine] | −4.31 | – | – | IC50 [2, 6]: 64.8 ± 1.22 µM; GI50 ([3]; Table 9): 17.8 µM
13 | 13.7 ± 5.78 | – | – | – | CC(C)OC(=O)c1ccc(NCC2=CC(=O)C=CC2=O)cc1 [Compound 21, 4′-isopropylbenzoate-1′-N-p-quinone-2-methyl amine] | −4.55 | – | – | IC50 [2, 6]: 17.4 ± 1 µM; GI50 ([3]; Table 9): 26.9 µM
14 | – | – | – | 26 | CC(C)OC(=O)c1ccc(CCC2=CC(=O)C=CC2=O)cc1 [Compound 30] | – | – | – | IC50 [1, 10]: 25 µM
15 | – | 41.1 | 44.7 | – | O=C(O)c1cc(N(Cc2ccccc2O)Cc2cc(O)ccc2O)ccc1O [Lavendustin A, 5-[(2,5-dihydroxy-benzyl)-(2-hydroxy-benzyl)-amino]-2-hydroxy-benzoic acid] | – | −4.06 | −4.00 | –
16 | – | – | – | 10 | CC(C)OC(=O)c1ccc(CCC2=CC(=O)C(Br)=CC2=O)cc1 [Compound 32] | – | – | – | IC50 (p210^ber-abi in vitro phosphorylation) ([1]; Table 4): No Effect
